For 58 compounds, LogP results are on record in US12520844B2 (Bayer Aktiengesellschaft, priority 2020, dated 2026).

A short description of this data set: Measurement of Log P values by HPLC on reversed phase columns (EEC directive 79/831 Annex V.A8). The data set is classed as physicochemical. As for the experimental part:
Measurement of Log P values as provided herein was performed according to EEC directive 79/831 Annex V.A8 by HPLC (High Performance Liquid Chromatography) on reversed phase columns with the following methods: • ^[a] Log P value is determined by measurement of LC-UV, in an acidic range, with 0.1% formic acid in water and acetonitrile as eluent (linear gradient from 10% acetonitrile to 95% acetonitrile). • ^[b] Log P value is determined by measurement of LC-UV, in a neutral range, with 0.001 molar ammonium acetate solution in water and acetonitrile as eluent (linear gradient from 10% acetonitrile to 95% acetonitrile). • ^[c] Log P value is determined by measurement of LC-UV, in an acidic range, with 0.1% phosphoric acid and acetonitrile as eluent (linear gradient from 10% acetonitrile to 95% acetonitrile).
If more than one Log P value is available within the same method, all the values are given and separated by “+”.
Calibration was done with straight-chain alkan2-ones (with 3 to 16 carbon atoms) with known Log P values (measurement of Log P values using retention times with linear interpolation between successive alkanones). Lambda-max-values were determined using UV-spectra from 200 nm to 400 nm and the peak values of the chromatographic signals
For `Cc1ncc(Oc2cccc(C3CC3)c2F)c(C(=O)NCC(F)(F)c2cc(Cl)sc2Cl)n1` [Compound I-070], the LogP is 4.69^[a].

As for `CCc1cccc(Oc2cnc(C)nc2C(=O)NCC(F)(F)c2ccc(C)cc2C)c1` [Compound I-071], the LogP was 4.42^[a].

Consider `COCc1cccc(Oc2cnc(C)nc2C(=O)NCC(F)(F)c2ccc(C)cc2C)c1` [Compound I-072], for which the LogP is 3.67^[a].

Regarding `C#Cc1cccc(Oc2nnc(C3CC3)nc2C(=O)NCC(F)(F)c2ccc(C)cc2C)c1` [Compound I-073], the LogP is 4.26^[a].

As to `Cc1cc(C)n(CCNC(=O)c2nc(C)ncc2Oc2cccc(C3CC3)c2F)n1` [Compound I-075], the LogP is 2.60^[a].

In the case of `Cc1ncc(Oc2cccc(C3CC3)c2F)c(C(=O)NC(C)c2ccc(Cl)s2)n1` (stereo not shown) [Compound I-076], the LogP was 4.09^[a].

`Cc1ncc(Oc2cccc(C3CC3)c2F)c(C(=O)NCCc2ccc3c(c2)OCCO3)n1` [Compound I-077]: the LogP is 3.30^[a].

In the case of `Cc1ncc(Oc2cccc(C3CC3)c2F)c(C(=O)NC2CCCc3sc(C4CC4)nc32)n1` (stereo not shown) [Compound I-078], the LogP was 3.81^[a].

Turning to `Cc1ccc(C(F)(F)CNC(=O)c2nc(C)ncc2Oc2cccc(C#N)c2)c(C)c1` [Compound I-079], the LogP was 3.53^[a].

For `Cc1ncc(Oc2cccc(C3CC3)c2F)c(C(=O)NC2CC(C)(C)Oc3cc(Cl)c(F)cc32)n1` (stereo not shown) [Compound I-080], the LogP is 4.87^[a].

Turning to `Cc1ncc(Oc2cccc(C3CC3)c2F)c(C(=O)NCCOc2ccc(C(F)(F)F)cc2Cl)n1` [Compound I-081], the LogP was 4.52^[a].

In the case of `COc1cccc(Oc2nnc(C3CC3)nc2C(=O)NCC(F)(F)c2ccc(C)cc2C)c1` [Compound I-082], the LogP was 4.19^[a].

On to `Cc1ccc(C(F)(F)CNC(=O)c2nc(C)ncc2Oc2cccc(C)c2F)c(C)c1` [Compound I-083], for which the LogP was 4.07^[a].

As for `COc1cccc(Oc2cnc(C)nc2C(=O)NCC(F)(F)c2ccc(C)cc2C)c1F` [Compound I-084], the LogP is 3.71^[a].

`Cc1ccc(C(F)(F)CNC(=O)c2nc(C)ncc2Oc2cccc(Br)c2)c(C)c1` [Compound I-085]: the LogP was 4.28^[a].

Regarding `Cc1ncc(Oc2cccc(C3CC3)c2F)c(C(=O)NCCn2cc(Cl)cn2)n1` [Compound I-086], the LogP was 2.88^[a].

`Cc1ncc(Oc2cccc(C3CC3)c2F)c(C(=O)NCCc2ccc3c(c2)CCO3)n1` [Compound I-087]: the LogP is 3.43^[a].

As to `Cc1ncc(Oc2cccc(C3CC3)c2F)c(C(=O)N(Cc2ccccc2)OCC(C)C)n1` [Compound I-088], the LogP was 4.72^[a].

For the compound `COc1cc(C(F)CNC(=O)c2nc(C)ncc2Oc2cccc(C3CC3)c2F)ccc1Cl` (stereo not shown) [Compound I-089], the LogP was 3.93^[a].

`Cc1ccc(C(F)(F)CNC(=O)c2nc(C)ncc2Oc2cccc([N+](=O)[O-])c2)c(C)c1` [Compound I-090]: the LogP is 3.75^[a].

With `Cc1ccc(C(F)(F)CNC(=O)c2nc(C)ncc2Oc2cccc3c2CCC3)c(C)c1` [Compound I-092], the LogP is 4.49^[a].

Take `Cc1ccc(C(F)(F)CNC(=O)c2nc(C)ncc2Oc2ccc(C)c(Cl)c2)c(C)c1` [Compound I-093]: the LogP is 4.54^[a].

As to `Cc1ccc(C(F)(F)CNC(=O)c2nc(C)ncc2Oc2cccc(OC(F)(F)F)c2)c(C)c1` [Compound I-094], the LogP is 4.50^[a].

As for `Nc1ncc(Oc2cccc(C(F)(F)F)c2)c(C(=O)NCCc2ccc(Br)cc2)n1` [Compound I-095], the LogP was 4.05^[a].

For the compound `CC(NC(=O)c1nc(F)ncc1Oc1cccc(C(F)(F)F)c1)c1cccc(C(F)(F)F)c1` (stereo not shown) [Compound I-096], the LogP was 2.88^[a].

Consider `Cc1ncc(Oc2cccc(C3CC3)c2F)c(C(=O)NOCc2ccc(C#N)cc2)n1` [Compound I-097], for which the LogP was 2.87^[a].

On to `Cc1ncc(Oc2cccc(C3CC3)c2F)c(C(=O)NCCc2ccc(OC(C)C)nc2)n1` [Compound I-099], for which the LogP was 3.44^[a].

Turning to `Cc1ncc(Oc2cccc(C3CC3)c2F)c(C(=O)NOCc2ccc(OC(F)(F)F)cc2)n1` [Compound I-100], the LogP is 3.89^[a].

On to `C#Cc1cccc(Oc2cnc(C)nc2C(=O)NCC(F)(F)c2ccc(C)cc2C)c1` [Compound I-102], for which the LogP was 4.01^[a].

For the compound `Cc1ccc(C(F)(F)CNC(=O)c2nc(C)ncc2Oc2cccc(C3CC3)c2F)c(C)c1` [Compound I-103], the LogP was 4.44^[a].

Turning to `Cc1ccc(C(F)(F)CNC(=O)c2nc(C)ncc2Oc2ccc3c(c2)CCC3)c(C)c1` [Compound I-104], the LogP is 4.56^[a].

`Cc1ccc(/C(F)=C/NC(=O)c2nc(C3CC3)nnc2Oc2cccc(Cl)c2F)c(C)c1` [Compound I-105]: the LogP is 5.36^[a].

Turning to `Cc1ccc(C(F)(F)CNC(=O)c2nc(C)ncc2Oc2ccc3ccccc3c2)c(C)c1` [Compound I-106], the LogP is 4.35^[a].

Turning to `Cc1ccc(/C(F)=C/NC(=O)c2nc(C3CC3)nnc2Oc2cccc(C)c2F)c(C)c1` [Compound I-107], the LogP is 4.85^[a].

For the compound `Cc1ccc(C(F)(F)CNC(=O)c2nc(C)ncc2Oc2ccc(Cl)c(C(F)(F)F)c2)c(C)c1` [Compound I-108], the LogP was 4.72^[a].

With `Cc1ccc(/C(F)=C\NC(=O)c2nc(C3CC3)nnc2Oc2cccc(Cl)c2F)c(C)c1` [Compound I-109], the LogP is 5.00^[a].

`Cc1nnc(Oc2cccc(C(F)(F)F)c2)c(C(=O)NCC2(c3ccc(Cl)cc3)COC2)n1` [Compound I-110]: the LogP is 3.35^[a].

As for `CCN(CCc1ccccc1)C(=O)c1nc(C)ncc1Oc1cccc(C2CC2)c1F` [Compound I-111], the LogP is 4.04^[a].

On to `Cc1ccc(/C(F)=C/NC(=O)c2nc(C3CC3)nnc2Oc2cccc(C3CC3)c2F)c(C)c1` [Compound I-112], for which the LogP was 5.20^[a].

In the case of `Cc1ncc(Oc2cccc(C3CC3)c2F)c(C(=O)NC2CCOc3c(C)cccc32)n1` (stereo not shown) [Compound I-113], the LogP was 4.02^[a].

Consider `Cc1ncc(Oc2cccc(C3CC3)c2F)c(C(=O)NC2CCCc3ccc(Cl)cc32)n1` (stereo not shown) [Compound I-114], for which the LogP was 4.46^[a].

Turning to `C=Cc1cccc(Oc2cnc(C)nc2C(=O)NCC(F)(F)c2ccc(C)cc2C)c1` [Compound I-115], the LogP was 4.17^[a].

Take `COc1ccc2c(c1)C(NC(=O)c1nc(C)ncc1Oc1cccc(C3CC3)c1F)C(OC)CC2` (stereo not shown) [Compound I-116]: the LogP is 3.99^[a].

Turning to `Cc1ccc(C(F)(F)CNC(=O)c2nc(C)nnc2Oc2cccc(C3CC3)c2)c(C)c1` [Compound I-117], the LogP was 4.33^[a].

`Cc1ccc(C(F)(F)CNC(=O)c2nc(C)ncc2Oc2cnc3c(c2)CCC3)c(C)c1` [Compound I-118]: the LogP was 2.78^[a].

`Cc1nnc(Oc2cccc(C(F)(F)F)c2)c(C(=O)NC(C)c2cccc(C(F)(F)F)c2)n1` (stereo not shown) [Compound I-119]: the LogP was 3.77^[a].

In the case of `Cc1ccc(C(F)(F)CNC(=O)c2nc(C)ncc2Oc2cnc3ccccc3c2)c(C)c1` [Compound I-120], the LogP is 3.40^[a].

In the case of `Cc1ccc(C(F)(F)CNC(=O)c2nc(C3CC3)nnc2Oc2cccc(C(F)(F)F)c2)c(C)c1` [Compound I-121], the LogP is 4.74^[a].

For the compound `Cc1ccc(C(F)(F)CNC(=O)c2nc(C)ncc2Oc2cccc(-n3ccc(C(F)(F)F)n3)c2)c(C)c1` [Compound I-122], the LogP is 4.54^[a].

With `CCON(Cc1ccccc1)C(=O)c1nc(C)ncc1Oc1cccc(C2CC2)c1F` [Compound I-123], the LogP is 3.97^[a].

As to `Cc1ncc(Oc2cccc(C3CC3)c2F)c(C(=O)NCCc2ccc3c(c2)OCO3)n1` [Compound I-124], the LogP was 3.34^[a].

For the compound `CSc1cccc(Oc2cnc(C)nc2C(=O)NCC(F)(F)c2ccc(C)cc2C)c1` [Compound I-126], the LogP is 4.11^[a].

As to `Cc1ccc(C(F)(F)CNC(=O)c2nc(C)ncc2Oc2ccc3c(c2)CCO3)c(C)c1` [Compound I-128], the LogP was 3.59^[a].

For the compound `Cc1ccc(C(F)(F)CNC(=O)c2nc(C)ncc2Oc2ccc(F)c(Cl)c2)c(C)c1` [Compound I-129], the LogP is 4.20^[a].

`Cc1ccc(C(F)(F)CNC(=O)c2nc(C3CC3)nnc2Oc2cccc(C(F)(F)F)c2)c(Cl)c1` [Compound I-130]: the LogP is 4.66^[a].

Consider `Cc1ccc(C(F)(F)CNC(=O)c2nc(C3CC3)nnc2Oc2cccc(Cl)c2F)c(C)c1` [Compound I-131], for which the LogP is 4.62^[a].

Take `Cc1ccc(C(F)=CNC(=O)c2nc(C3CC3)nnc2Oc2cccc(Br)c2)c(C)c1` [Compound I-132]: the LogP was 4.97^[a].

Regarding `Cc1ncc(Oc2cccc(C3CC3)c2F)c(C(=O)NCCc2csc(C)c2C)n1` [Compound I-134], the LogP was 4.10^[a].
